Measured values: patent publication US4304726A, “Process for the preparation of cholesterol derivatives” (The Green Cross Corporation, priority 1979, dated 1981)

What was measured:
[1] = Japanese Kokai No. 104,735/1978, cited from earlier work; for immunosuppressive effect: particularly cell-mediated
[2] = test system: PHA reaction; experiment: PHA reaction, 50% inhibitory concentration (immunosuppressive action in vitro); type: cell-based; conditions: ester form as emulsion with polyoxyethylene-polyoxypropylene copolymer, salt form as aqueous solution; for IC50: read-out: Concentration for 50% inhibition
Method: In accordance with the PHA method by Cooparband et al. [The Journal of Immunology, 109, (1), 154 (1972)], the compounds of this invention were tested for the 50% inhibitory concentration in the PHA reaction. Also, the effect of IRA (Immunoregulatory α-globulin) obtained according to the method of Occhino et al. [The Journal of Immunology, 110, (3), 685 (1973)] was shown as comparative test data. Among these compounds, those of the ester form were used in emulsion employing a copolymer of polyoxyethylene-polyoxypropylene having molecular weight of 8350 as a surfactant, and those of the salt form were used as aqueous solutions.

[3] = test system: carrageenin edema of hind footpad; experiment: Carrageenin hind footpad edema in rats (anti-inflammatory action); type: in vivo; conditions: 50 mg/kg intraperitoneally 1 h before carrageenin, 4 hours after inoculation
Method: Using rats, each of derivatives of 7-hydroxycholesterol and of 7-ketocholesterol shown in Table 2 was administered intraperitoneally to 5 rats of each group in a dose of 50 mg/kg (physiologically isotonic aqueous solution with a concentration of 2.0% by weight), and one hour after the administration, each 0.05 ml of 1% aqueous carrageenin solution as an inflammation-causing substance was subcutaneously inoculated at the hind footpad.
After 4 hours from the inoculation of carrageenin, the size of edema caused on the footpad was measured by means of a volume differential meter to compare with that of the control group which was given to the physiological sodium chloride aqueous solution.
The ester samples administered were in the form of emulsion employing a phospholipid as a surfactant, and the salt samples were in the form of physiologically isotonic solution.

[4] = test system: rats; experiment: Acute toxicity test in rats; type: in vivo; conditions: intraperitoneal, 250, 500, 750 or 1000 mg/kg, 5-days' observation
Method: Acute toxicity tests were performed using rats, each group consisting of 5 rats each weighing approximately 200 g, on 7-ketocholesteryl hydrogen succinate, 7-ketocholesteryl hydrogen phthalate, sodium 7-ketocholesteryl succinate, ammonium 7-ketocholesteryl succinate, 7-hydroxycholesteryl hydrogen succinate, 7β-hydroxycholesteryl hydrogen phthalate, sodium 7-hydroxycholesteryl succinate, and sodium 7β-hydroxycholesteryl phthalate. Each of the compounds of salt type was made into a physiologically isotonic aqueous solution, and each of the compounds of ester type was dispersed with a surfactant and by ultrasonic wave treatment to give a uniform dispersion. Thereafter, each of them was administered intraperitoneally in an amount of 250 mg/kg, 500 mg/kg, 750 mg/kg, or 1000 mg/kg. After 5-days' observation, no rat died.

SMILES	anti-inflammatory effect [1]	immunosuppressive effect [1]	IC50 [2] [µg/mL]	Swelling rate of edema ([3]; control 82, 50 mg/kg) [%]	death of rats (acute toxicity) [4]	Swelling rate of edema ([3]; control 82) [%]	Concentration for 50% inhibition [2] [µg/mL]
CC(C)CCC[C@@H](C)[C@H]1CC[C@H]2[C@@H]3C(O)C=C4C[C@@H](O)CC[C@]4(C)[C@H]3CC[C@]12C (stereo partly shown) [7-hydroxycholesterol]	effective	effective as immunosuppressive agent	–	–	–	–	–
CC(C)CCC[C@@H](C)[C@H]1CC[C@H]2[C@@H]3C(O)C=C4C[C@@H](OC(=O)CCC(=O)O)CC[C@]4(C)[C@H]3CC[C@]12C (stereo partly shown) [7-hydroxycholesteryl hydrogen succinate]	–	–	3	29	no rat died	–	–
CC(C)CCC[C@@H](C)[C@H]1CC[C@H]2[C@@H]3C(=O)C=C4C[C@@H](O)CC[C@]4(C)[C@H]3CC[C@]12C [7-ketocholesterol]	effective	effective as immunosuppressive agent	–	–	–	–	–
CC(C)CCC[C@@H](C)[C@H]1CC[C@H]2[C@@H]3C(=O)C=C4C[C@@H](OC(=O)c5ccccc5C(=O)O)CC[C@]4(C)[C@H]3CC[C@]12C [7-ketocholesteryl hydrogen phthalate]	–	–	4	–	no rat died	28	–
CC(C)CCC[C@@H](C)[C@H]1CC[C@H]2[C@@H]3C(=O)C=C4C[C@@H](OC(=O)CCC(=O)O)CC[C@]4(C)[C@H]3CC[C@]12C [7-ketocholesteryl hydrogen succinate]	–	–	4	–	no rat died	30	–
CC(C)CCC[C@@H](C)[C@H]1CC[C@H]2[C@@H]3[C@@H](O)C=C4C[C@@H](OC(=O)c5ccccc5C(=O)O)CC[C@]4(C)[C@H]3CC[C@]12C [7β-hydroxycholesteryl hydrogen phthalate]	–	–	3	30	no rat died	–	–
CC(C)CCC[C@@H](C)[C@H]1CC[C@H]2[C@@H]3C(O)C=C4C[C@@H](OC(=O)CCC(=O)O)CC[C@]4(C)[C@H]3CC[C@]12C (stereo partly shown) [Sodium 7-hydroxycholesteryl succinate, sodium 7-hydroxycholesteryl succinate]	–	–	–	28	no rat died	–	3
CC(C)CCC[C@@H](C)[C@H]1CC[C@H]2[C@@H]3[C@@H](O)C=C4C[C@@H](OC(=O)c5ccccc5C(=O)O)CC[C@]4(C)[C@H]3CC[C@]12C [Sodium 7β-hydroxycholesteryl phthalate]	–	–	–	31	no rat died	–	4
